The source made the active and inactive calls. The calls are words filed in the database; no cut-off is given here.
Experiments:
Mus musculus [1] = assay: Antiinflammatory activity in albino mouse assessed as inhibition of carrageenan-induced paw edema at 100 mg/kg, po administered 1 hr before carrageenan challenge measured after 3 hrs; type: functional
Mus musculus [2] = assay: Antiinflammatory activity in albino mouse assessed as inhibition of carrageenan-induced paw edema at 80 mg/kg, ip administered 1 hr before carrageenan challenge measured after 3 hrs; type: functional; conditions: route intraperitoneal
Mus musculus [3] = assay: Antiinflammatory activity in albino mouse assessed as inhibition of carrageenan-induced paw edema at 75 mg/kg, ip administered 1 hr before carrageenan challenge measured after 3 to 7 hrs; type: functional; conditions: route intraperitoneal
Mus musculus [4] = assay: Antiinflammatory activity in albino mouse assessed as inhibition of carrageenan-induced paw edema at 125 mg/kg, po administered 1 hr before carrageenan challenge measured after 3 to 7 hrs; type: functional, organism-based; design: dose 125 mg/kg
Mus musculus [5] = assay: Antiinflammatory activity in po dosed albino mouse assessed as inhibition of carrageenan-induced paw edema administered 1 hr before carrageenan challenge measured; type: functional, organism-based
Mus musculus [6] = assay: Antiinflammatory activity in albino mouse assessed as inhibition of carrageenan-induced paw edema at 250 mg/kg, po administered 1 hr before carrageenan challenge measured after 3 hrs; type: functional

SMILES | inhibition in vivo at 100 mg/kg (Mus musculus [1]) | inhibition in vivo at 80 mg/kg (Mus musculus [2]) | inhibition in vivo at 75 mg/kg (Mus musculus [3]) | Activity (Mus musculus [4]) | Activity (Mus musculus [5]) | inhibition in vivo at 250 mg/kg (Mus musculus [6])
CCCCC1C(=O)N(c2ccccc2)N(c2ccccc2)C1=O [PHENYLBUTAZONE] | 47.7% |  |  |  |  | 
C=C[C@@]1(CO)CC[C@H]2[C@]3(C)CCCC(C)(C)[C@H]3CC[C@]2(C)O1 |  | 63.5% | 60.1% | Active | Dose-dependent effect | 55.8%

From ChEMBL document CHEMBL1147310, “Anti-inflammatory compounds from Sideritis javalambrensis n-hexane extract” (1989)
